Test results taken from US20260294946A1, “METHOD TO REDUCE FEED CONVERSION RATIO IN A FARMED ANIMAL” (Inbiose N.V., priority 2023, published 2026).

Tests used:
Experiment in all cases: Fecal microbiota of calves, shotgun metagenomics
Assay type in all cases: in vivo
Atopobium deltae = conditions: T1 (W 5), versus placebo calves, score = −log 10(pvalue)*sign(coef)
Description: (§1) Stools were collected directly from recta of six calves in one selected pen upon rectal inducing at day 29 (W5) and day 57 (W9). The fecal samples (approximately 1 g) were immediately snap frozen using isopropanol-dried ice bath for 1 minute before they were transferred onto dried ice for transportation to a long-term storage at −80° C.
(§2) Total fecal DNA was extracted from 200 mg feces while total upper respiratory tract microbial DNA were extracted from 1 ml DNA shield reagent containing the nasal pharyngeal swab. ZymoBIOMICS™ DNA miniprep kit (Zymo Research) in combination with a FASTPREP® 24 device was used to extract and purify the microbial DNA as instructed by the manufacturer. Purified total DNA were eluted in 100 μl and were quickly checked for the concentration and quality using Nanodrop (Implen NANOPHOTOMETER®) before storage at −20° C.
(§3) Total DNA were submitted to Eurofins (GATC, Germany) to perform metagenomics using their INVIEW metagenome platform. Briefly, total DNA were first fragmented, then ligated with adapter for library preparation. The sequencing was done using Illumina paired end sequencing technology (2×150 bp), guaranteed for 20 million read pairs (40 million reads). Reads were quality-checked with fastqc (bioinformatics.babraham.ac. uk/projects/fastqc/) and trimmed with Trimmomatic (Bolger et al., 2014, Bioinformatics, 30(15): p. 2114-2120; usadellab.org/cms/?page=trimmomatic). Bovine reads were removed by mapping to the cow reference database Bos_taurus_UMD_3.1.1 using BMTagger (bioconda.github.io/recipes/bmtagger/README.html). Profiling of the taxonomic composition and the functional potential of microbial communities was done using Metaphlan (Beghini et al., 2021, Elife 10: e65088; /huttenhower.sph.harvard.edu/humann/).
(§4) Microbiome data was normalized in cpm (counts per million).
(§5) The treatment effect of MMOs in the microbiome data was evaluated per timepoint with Maaslin2 (Mallick et al., 2021, PLoS Computational Biology 17(11): e1009442) using AST transformation and adding compartment as fixed effect. For visualization in the tables a score was calculated equal to −log 10(pvalue)*sign(coef). Spearman correlation was used to evaluate the relation between microbiome and FCR using the cor.test function in the stats package in R.

Bacteroides coprophilus = conditions: T2 (W 9), versus placebo calves, score = −log 10(pvalue)*sign(coef)
Description: as §1, §2, §3, §4, §5

[1] = system: Bacteroides pectinophilus; conditions: T2 (W 9), versus placebo calves, score = −log 10(pvalue)*sign(coef)
Description: as §1, §2, §3, §4, §5

Eubacterium rectale = conditions: T1 (W 5), versus placebo calves, score = −log 10(pvalue)*sign(coef)
Description: as §1, §2, §3, §4, §5

Prevotella copri = conditions: T1 (W 5), versus placebo calves, score = −log 10(pvalue)*sign(coef)
Description: as §1, §2, §3, §4, §5

Ruminococcus bromii = conditions: T2 (W 9), versus placebo calves, score = −log 10(pvalue)*sign(coef)
Description: as §1, §2, §3, §4, §5

2′-fucosyllactose [2′FL]
Significant change in counts per million (cpm) of bacteria species (score) (Atopobium deltae): −1.44 | Significant change in counts per million (cpm) of bacteria species (score) (Bacteroides coprophilus): −1.56 | Significant change in counts per million (cpm) of bacteria species (score) [1]: 1.35 | Significant change in counts per million (cpm) of bacteria species (score) (Eubacterium rectale): 1.35 | Significant change in counts per million (cpm) of bacteria species (score) (Prevotella copri): −1.68 | Significant change in counts per million (cpm) of bacteria species (score) (Ruminococcus bromii): 1.65
